{"source": "patent US20120196854A1", "about": "“PHARMACEUTICAL COMPOSITION COMPRISING AROMATIC HETEROCYCLIC COMPOUND” (Kyowa Hakko Kirin Co., Ltd., priority 2009, published 2012)", "data": [{"system": "PGD2 production in mouse ear", "assay": "Inhibitory effect on PGD2 production in mouse ear caused by allergic reaction", "type": "in vivo", "details": "3 mg/kg orally, 1 hour before inducing antigen-antibody reaction; BALB/c mice", "procedure": "A test of PGD2 production in the mouse ear caused by allergic reaction was conducted according to the evaluation method of passive cutaneous anaphylaxis in the mouse ear by Inagaki et al. (Int.Arch.AllergyAppl. Immunol., 1988, 86 (3), 325-30) with some alteration. […]\nOne hour after the induction of antigen-antibody reaction, the mice were killed by cervical dislocation and the ears were cut off with scissors. […] The harvested pieces of ear tissue were immediately frozen in liquid nitrogen, and preserved at −80° C. until measurement of the quantity of PGD2.\nThe quantity of PGD2 was determined in the following manner. […]", "units": {"inhibition of PGD2 production in mouse ear caused by allergic reaction": "%"}, "values": [{"smiles": "Cc1cccc(-n2nc3ccc4nc(-c5ccco5)cc(C(=O)O)c4c3n2)c1", "note": "[Compound 102, 7-(furan-2-yl)-2-(3-methylphenyl)-2H-[1,2,3]triazolo[4,5-f]quinoline-9-carboxylic acid]", "inhibition of PGD2 production in mouse ear caused by allergic reaction": 84}]}, {"molecular_target": "T1, human H-PGDS (Homo sapiens, UniProt O60760)", "T1 construct": "purchased Cayman Chemical 10006593", "T1 sequence (O60760 whole entry)": "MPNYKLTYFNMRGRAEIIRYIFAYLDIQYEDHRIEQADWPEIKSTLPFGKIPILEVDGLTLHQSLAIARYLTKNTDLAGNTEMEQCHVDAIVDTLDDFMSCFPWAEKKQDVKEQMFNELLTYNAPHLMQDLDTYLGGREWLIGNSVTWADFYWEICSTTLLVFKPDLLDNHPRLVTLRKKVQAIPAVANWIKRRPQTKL", "assay": "H-PGDS inhibitory activity (Prostaglandin D Synthase Inhibitor Screening Assay Kit)", "type": "biochemical", "details": "at a concentration of 1 μmol/L; read-out: H-PGDS inhibitory rate", "procedure": "The H-PGDS inhibitory activity of Compound (I) was calculated according to the following protocol attached to Prostaglandin D Synthase Inhibitor Screening Assay Kit (Cat. No. 10006595, Cayman Chemical, Ann Arbor, Mich., USA).\n(§1) First, to a 96-well round-bottom plate (Cat. No. 3882-096, Asahi Techno Glass, Chiba), 60 μL/well of an enzyme assay buffer (0.1 mol/L Tris-HCl, pH 8.0), 10 μL/well of a human H-PGDS [Cat. No. 10006593 (human), Cayman Chemical, Ann Arbor, Mich., USA] at a final concentration of 0.125 μg/mL, 10 μL/well of reduced glutathione at a final concentration of 1 mmol/L, and 10 μL/well of Compound (I) diluted with the enzyme assay buffer were added and lightly mixed. The plate was allowed to stand at room temperature for 10 minutes, and then 10 μL/well of prostaglandin H2(PGH2) (Cat. No. 17020, Cayman Chemical) at a final concentration of 50 μmol/L was added thereto to start enzyme reaction. The reaction was allowed to proceed with mixing by a plate mixer for 1 minute. After the enzyme reaction, 10 μL/well of a 4 mg/mL FeCl2-HCl solution prepared by dissolving FeCl2 in 1 mol/L hydrochloric acid was added to stop the reaction and reduce PGH2 simultaneously. The enzyme reaction solution (100 μL/well) was transferred to a 96-well UV-Star half area plate (Cat. No. 675801, Greiner, Frickenhausen, Germany), and measured for absorbance at 232 nm using a microplate reader Power Wave (BioTek Instrument Inc., Winooski, Vt., USA).\nThe H-PGDS inhibitory activity (inhibitory rate) of Compound (I) was calculated by the following formula.\nThe H-PGDS inhibitory activity of Compound 133 was calculated according to the following protocol attached to Prostaglandin D Synthase Inhibitor Screening Assay Kit (Cat. No. 10006595, Cayman Chemical, Ann Arbor, Mich., USA).\nas §1, with “133” for “(I)”\nThe H-PGDS inhibitory activity (inhibitory rate) of Compound 133 was calculated according to the method in Test Example 1.", "units": {"inhibition at 1 µM": "%"}, "values": [{"smiles": "CS(=O)(=O)Nc1ccc(-c2cc(C(=O)O)c3c(ccc4nn(-c5ccccc5)nc43)n2)cc1", "note": "[Compound 6, 7-(4-methanesulfonylaminophenyl)-2-phenyl-2H[1,2,3]triazolo[4,5-f]quinoline-9-carboxylic acid]", "inhibition at 1 µM": "≥ 80"}, {"smiles": "CS(=O)(=O)NC(=O)c1ccc(-c2cc(C(=O)O)c3c(ccc4nn(-c5ccccc5)nc43)n2)cc1", "note": "[Compound 13, 7-(4-methanesulfonylaminocarbonylphenyl)-2-phenyl-2H[1,2,3]triazolo[4,5-f]quinoline-9-carboxylic acid]", "inhibition at 1 µM": "≥ 80"}, {"smiles": "O=C(O)c1cc(-c2ccc(NS(=O)(=O)c3ccccc3)cc2)nc2ccc3nn(-c4ccccc4)nc3c12", "note": "[Compound 15, 7-(4-benzenesulfonylaminophenyl)-2-phenyl-2H[1,2,3]triazolo[4,5-f]quinoline-9-carboxylic acid]", "inhibition at 1 µM": "≥ 80"}, {"smiles": "CS(=O)(=O)NC(=O)c1cccc(-c2cc(C(=O)O)c3c(ccc4nn(-c5ccccc5)nc43)n2)c1", "note": "[Compound 17, 7-(3-methanesulfonylaminocarbonylphenyl)-2-phenyl-2H[1,2,3]triazolo[4,5-f]quinoline-9-carboxylic acid]", "inhibition at 1 µM": "≥ 80"}, {"smiles": "O=C(NS(=O)(=O)c1ccccc1)c1cccc(-c2cc(C(=O)O)c3c(ccc4nn(-c5ccccc5)nc43)n2)c1", "note": "[Compound 26, 7-(3-benzenesulfonylaminocarbonylphenyl)-2-phenyl-2H[1,2,3]triazolo[4,5-f]quinoline-9-carboxylic acid]", "inhibition at 1 µM": "≥ 80"}, {"smiles": "O=C(NS(=O)(=O)c1ccccc1)c1ccc(-c2cc(C(=O)O)c3c(ccc4nn(-c5ccccc5)nc43)n2)cc1", "note": "[Compound 28, 7-(4-benzenesulfonylaminocarbonylphenyl)-2-phenyl-2H[1,2,3]triazolo[4,5-f]quinoline-9-carboxylic acid]", "inhibition at 1 µM": "≥ 80"}, {"smiles": "O=C(O)c1cc(-c2ccc(NS(=O)(=O)c3ccccc3)cc2)nc2ccc3nc(-c4ccccc4)oc3c12", "note": "[Compound 53, 7-(4-benzenesulfonylaminophenyl)-2-phenyloxazolo[5,4-f]-quinoline-9-carboxylic acid]", "inhibition at 1 µM": "≥ 80"}, {"smiles": "O=C(O)c1cc(-c2cc(C(=O)O)c3c(ccc4nn(-c5cccc(F)c5)nc43)n2)c[nH]1", "note": "[Compound 76, 7-(5-carboxy-1H-pyrrol-3-yl)-2-(3-fluorophenyl)-2H-[1,2,3]-triazolo[4,5-f]quinoline-9-carboxylic acid]", "inhibition at 1 µM": "≥ 80"}, {"smiles": "Cc1cccc(-n2nc3ccc4nc(-c5ccco5)cc(C(=O)O)c4c3n2)c1", "note": "[Compound 102, 7-(furan-2-yl)-2-(3-methylphenyl)-2H-[1,2,3]triazolo[4,5-f]quinoline-9-carboxylic acid]", "inhibition at 1 µM": "≥ 80"}, {"smiles": "O=C(O)c1cc(-c2cnn(Cc3ccccc3)c2)nc2ccc3nn(-c4cccc(F)c4)nc3c12", "note": "[Compound 116, 7-(1-benzyl-1H-pyrazol-4-yl)-2-(3-fluorophenyl)-2H-[1,2,3]-triazolo[4,5-f]quinoline-9-carboxylic acid]", "inhibition at 1 µM": "≥ 80"}]}]}
